Like-named read-outs stand apart in the source and are kept apart here.
How the values were obtained:
[1] = system: C. auris strains; test: PrestoBlue viability assay, amp B; type: cell-based, Candida auris
[2] = system: Enterococcus faecalis NR-31970; test: CFU test of synergy between photoinactivation of catalase and ROS-generating antibiotics (catalase-negative control); type: cell-based; conditions: ns-410 nm plus tobramycin 2 μg/ml, 4-hour incubation; catalase-negative strain
Description: (§1) Then prior to any treatments, the above solution was incubated with antibiotics (10 μg/ml) for 1 hour. For each bacterial strain, four groups were tested: untreated one, ns-410 nm-treated group, antibiotic (2 μg/ml)-treated group, ns-410 nm plus antibiotic (2 μg/ml)-treated group. Dose for ns-410 nm exposure was 15 J/cm2.

[3] = system: E. coli BW25113; test: CFU test of synergy between photoinactivation of catalase and ROS-generating antibiotics; type: cell-based, Escherichia coli; conditions: ns-410 nm (15 J/cm2) plus tobramycin 2 μg/ml, 4-hour incubation
Description: as §1

[4] = system: E. coli BW25113; test: CFU, photoinactivation of catalase with silver cation; type: cell-based, Escherichia coli; conditions: 30 and 60 minutes
[5] = system: MRSA USA300; test: Spread agar plates, photoinactivation of catalase with silver cation; type: cell-based, methicillin-resistant Staphylococcus aureus
[6] = system: clinical fungal isolates; conditions: 410 nm plus H2O2; more than twenty different clinical fungal isolates
Description: (§2) PrestoBlue viability assay: First log-phase fungal pathogens were prepared by diluting overnight-cultured fungal pathogens into fresh YPD broth at a ratio of 1:50 and cultured for another 2-3 hours at 30 C with the shaking speed of 200 rpm. After that, the fungal concentration was adjusted to be around 1×10^8 cells/ml by centrifuging or further dilution with PBS. 10 μl of the above fungal solution was exposed to 410 nm for 5 min (150 mW/cm^2). After that, the exposed sample was collected into 990 μl of sterile PBS, then supplemented with treatment agents. Aliquots were made from the above sample into a 96-well plate, with each well containing 100 μl. Then 100 μl sterile YPD broth and 23 μl of PrestoBlue were added into the same well. Fluorescence signal at 590 nm from each well was recorded in a time-course (up to 18 hours with the interval of 30 min) manner at an excitation of 560 nm. For each strain, in order to know the exact number of fungal pathogens in each well, the corresponding fluorescence signals were recorded from fungal pathogens with known numbers, however no external treatments.

[7] = system: CASC5314; conditions: 410 nm plus low-concentration H2O2; log-phase or stationary-phase
Description: as §2

[8] = system: Salmonella enterica; conditions: ns-410 nm combined with H2O2 22 mM
Text: (§3) CFU experiments to test the potential synergy between photoinactivation of catalase and H2O2: Overnight-cultured bacteria was centrifuged, the supernatant was discarded, and the pellet was resuspended with the same amount of PBS. The laser source used in the study is nanosecond (ns) pulsed OPO laser purchased from OPOTEK Inc, model number as Opolette HE355 LD, having the following key specifications: wavelength range, 410-2400 nm; pulse repetition rate, 20 Hz; maximum pulse energy at 460 nm, 8 mJ; pulse duration, 5 nanosecond; spectral linewidth, 4-6 cm-1; and pulse-to-pulse stability, <5%. For each bacterial strain there were four groups: untreated one, ns-410 nm-treated group, H2O2 (22 or 44 mM)-treated group, ns-410 nm plus H2O2 (22 or 44 mM)-treated group. Dose for ns-410 nm exposure was 15 J/cm^2. H2O2 was incubated with bacteria for 30 min at 37° C. with the shaking speed of 200 rpm. After incubation, bacterial burden from each group was serial diluted, inoculated onto TSA plates, then counted by enumeration of these plates.

[9] = system: stationary-phase MRSA USA300
Text: as §3

[10] = system: stationary-phase Pseudomonas aeruginosa
Text: as §3

[11] = system: Candida albicans SC5314
Description: CFU test to quantify the treatment efficacy: Quantification of antifungal treatment schemes were achieved as following: overnight cultured fungal specimen was washed by sterile PBS. And log-phase fungal pathogens were prepared by dilution into fresh YPD broth at a ratio of 1:50 and cultured for another 2-3 hours at 30° C. with the shaking speed of 200 rpm. After that, the fungal concentration was adjusted to be around 1×10^8 cells/ml by centrifuging or further dilution with PBS. 10 μl of the above fungal solution was exposed to 410 nm for 5 min (150 mW/cm^2). After that, the exposed sample was collected into 990 μl of sterile PBS, then supplemented with treatment agents. Later, CFU of fungal cells was enumerated by serial dilution and cultured in YPD agar plates for 48 hours.

[12] = H2O2 22 mM after photoinactivation of catalase (15 J/cm2)

`C[C@@H]1[C@H](O)[C@@H](C)/C=C/C=C/C=C/C=C/C=C/C=C/C=C/[C@H](O[C@@H]2O[C@H](C)[C@@H](O)[C@H](N)[C@@H]2O)C[C@@H]2O[C@](O)(C[C@@H](O)C[C@@H](O)[C@H](O)CC[C@@H](O)C[C@@H](O)CC(=O)O[C@H]1C)C[C@H](O)[C@H]2C(=O)O` [amp B, amphotericin B] was tested, and the “eradication (PrestoBlue fluorescence)” value ([1]; 410 nm plus amp B, same result with 410 nm without amp B, ten strains) was “total eradication” and the “susceptibility (PrestoBlue fluorescence)” value ([1]; amp B alone, without photoinactivation of catalase) was “some C. auris strains were resilient”.
In the case of `NC[C@H]1O[C@H](O[C@H]2[C@H](O)[C@@H](O[C@H]3O[C@H](CO)[C@@H](O)[C@H](N)[C@H]3O)[C@H](N)C[C@@H]2N)[C@H](N)C[C@@H]1O` [tobramycin, Tobramycin], the “enhanced killing effect in combination-treated group” value [2] is reported as “did not produce any enhanced killing effect” and the “enhancement of killing in combination-treated group” value [3] is reported as “More than 100 times”.
With `[Ag+]` [silver cation] the “killing effect (CFU ml-1)” value ([4]; 0.5 μM Ag+ alone) was “doesn't exert any significant killing effect”, the “reduction of bacterial burden” value ([4]; CW-410 (22 J/cm^2) combined with 0.5 μM Ag+) was “didn't significantly reduce bacterial burden” and the “reduction of bacterial burden” value ([4]; ns-410 (22 J/cm^2) in combination with 0.5 μM Ag+) was “around 99%”. The MRSA eliminated ([5]; ns-410 nm combined with 10 μM silver cation, one hour after treatment) was “about 90%” and the antimicrobial effect ([5]; silver cation alone) was “does not exert any significant antimicrobial effect”.
In the case of `OO` [H2O2, hydrogen peroxide], the “killing by synergistic therapy (PrestoBlue)” value [6] is reported as “significant killing was consistently found”, the “effect of photoinactivation of catalase on killing by H2O2 (PrestoBlue fluorescence)” value [7] is reported as “always boosts the killing effect” and the enhanced killing effect [8] is reported as “around five”. For the same compound, the “killing efficacy, ns-410 nm plus H2O2 compared to CW-410 nm plus H2O2” value ([9]; FIG. 6) was “significantly more effective”, the “reduction of bacterial burden” value [9, 12] was at least 3 log 10 reduction and the “reduction of bacterial burden” value ([9]; ns-410 nm (15 J/cm2) in combination with H2O2 22 mM) was “approximately four”. For the same compound, the “reduction of bacterial burden” value ([9]; ns-430 nm combined with H2O2 22 mM) was “around 99%”, the “reduction of bacterial burden” value ([9]; ns-450 or ns-460 nm combined with H2O2 22 mM) was “around 90%” and the “reduction of bacterial burden” value ([9]; ns-470 nm combined with H2O2 22 mM) was “around 50%”. For the same compound, the antimicrobial effect ([9]; ns-480 nm combined with H2O2 22 mM) was “barely exerts an antimicrobial effect”, the “killing efficacy, ns-410 nm plus H2O2 compared to CW-410 nm plus H2O2” value ([10]; FIG. 6) was “significantly more effective” and the “reduction of bacterial burden” value [10, 12] was at least 3 log 10 reduction. For the same compound, the eradication ([10]; H2O2 22 mM combined with 410 nm exposure (15 J/cm2)) was “total eradication”, the “antimicrobial effect (CFU ml-1)” value ([10]; H2O2 alone, 22 mM) was “didn't exert any significant antimicrobial effect” and the “enhancement of the function of H2O2 after photoinactivation of catalase” value ([11]; 410 nm exposure then H2O2, FIG. 11) was “more than five”. The “killing effect (CFU ml-1)” value ([11]; H2O2 alone, 44 mM (0.15%), 1.5-hour incubation, stationary-phase) was “doesn't exert significant killing effect”, the “eradication (time-killing, CFU)” value ([11]; low-concentration H2O2 after 410 nm exposure, FIG. 11) was “eradication was achieved” and the eradication ([11]; ns-410, ns-420 or ns-430 combined with H2O2 44 mM) was “total eradication”. For the same compound, the “reduction of fungal burden” value ([11]; ns-450 or ns-480 nm combined with H2O2 44 mM) was “reduced a similar amount of fungal burden as H2O2-alone” and the reduction of burden ([11]; ns-light (24 J/cm^2) in combination with H2O2 44 mM) was “around four”.
